Structures are written as SMILES.

The text below walks through data of publication PMC4001856 (Brain research, 2013).

The experiment has as its target APP (amyloid precursor protein) (Homo sapiens, UniProt P05067). Put plainly: SPR. Format: binding.

Sequence of APP (amyloid precursor protein) (P05067 230-624 isoform P05067-4): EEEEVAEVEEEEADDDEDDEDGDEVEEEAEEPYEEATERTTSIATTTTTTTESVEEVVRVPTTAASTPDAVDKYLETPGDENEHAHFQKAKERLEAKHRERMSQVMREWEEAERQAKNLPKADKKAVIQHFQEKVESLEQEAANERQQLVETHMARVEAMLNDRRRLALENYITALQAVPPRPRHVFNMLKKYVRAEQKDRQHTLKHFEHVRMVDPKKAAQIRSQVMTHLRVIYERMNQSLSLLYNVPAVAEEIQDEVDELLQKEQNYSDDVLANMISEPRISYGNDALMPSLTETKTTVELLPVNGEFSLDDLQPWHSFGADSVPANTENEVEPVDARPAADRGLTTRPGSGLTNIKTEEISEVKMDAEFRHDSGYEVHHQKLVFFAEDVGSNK

In turn, `CN1[C@@H]2CC[C@H]1C[C@@H](OC(=O)c1c[nH]c3ccccc13)C2` [tropisetron] showed a Kd of 0.9 µM.
